Measured values as given in patent US20220289794A1, “SYNTHETIC ANTIMICROBIAL PEPTIDES” (priority 2019, published 2022).
Converted amounts (≈) assume the structure as drawn. Like-named read-outs stand apart in the source and are kept apart here. Non-standard residues stand in square brackets, D forms with d. Residues, ends and D or L forms follow the SMILES beside them. Bip = N[C@@H](Cc1ccc(-c2ccccc2)cc1)C(=O)O

Experiments:
[1] = test system: Escherichia coli (ATCC 25922)
[2] = test system: Methicillin-resistant Staphylococcus aureus MRSA (ATCC BAA-1556)
[3] = test system: Pseudomonas aeruginosa (ATCC 27883)

Compound	MIC E. coli ATCC 25922 ([1]; ATCC 25922) [µg/mL]	MIC MRSA ATCC BAA-1556 ([2]; ATCC BAA-1556) [µg/mL]	MIC S. aureus ATCC 29213 (S. aureus ATCC 29213; ATCC 29213) [µg/mL]	MIC P. aeruginosa ATCC 27883 ([3]; ATCC 27883) [µg/mL]	MIC E. coli ATCC 25922 [1] [µg/mL]	MIC MRSA ATCC BAA-1556 [2] [µg/mL]	MIC S. aureus ATCC 29213 (S. aureus ATCC 29213) [µg/mL]	MIC P. aeruginosa ATCC 27883 [3] [µg/mL]
N=C(N)NCCC[C@@H]1NC(=O)[C@H](CCCNC(=N)N)NC(=O)[C@H](CCCNC(=N)N)NC(=O)[C@H](Cc2ccc(-c3ccccc3)cc2)NC(=O)[C@H](Cc2ccc(-c3ccccc3)cc2)NC(=O)[C@H](Cc2ccc(-c3ccccc3)cc2)NC(=O)[C@H](Cc2ccc(-c3ccccc3)cc2)NC(=O)[C@H](CCCNC(=N)N)NC1=O [IFX-004, c[Arg-Arg-Arg-Arg-Bip-Bip-Bip-Bip]] (cyclo([Bip][Bip][Bip][Bip]RRRR))	>100	>100	50 (≈ 32.9 µM)	>100				
c[Arg-Arg-Arg-Arg-7metW-7metW-7metW-7metW] [IFX-042]					25	6.2	6.1	50
c[PEG1-Arg-Arg-Arg-Arg-Arg-PEG1-Dip-Dip-Dip] [IFX-050-1]					32	32	16	128
N=C(N)NCCC[C@@H]1NC(=O)CNC(=O)CNC(=O)[C@H](Cc2c[nH]c3ccccc23)NC(=O)[C@H](Cc2c[nH]c3ccccc23)NC(=O)[C@H](Cc2c[nH]c3ccccc23)NC(=O)[C@H](Cc2c[nH]c3ccccc23)NC(=O)CNC(=O)CNC(=O)[C@H](CCCNC(=N)N)NC(=O)[C@H](CCCNC(=N)N)NC(=O)[C@H](CCCNC(=N)N)NC1=O [IFX-044] (cyclo(GGRRRRGGWWWW))	50 (≈ 31.3 µM)	25 (≈ 15.6 µM)	25 (≈ 15.6 µM)	50 (≈ 31.3 µM)				
c[Arg-Arg-Arg-Arg-5brW-5brW-5brW-5brW] [IFX-039]					>100	25	25	>100
c[PEG1-Arg-Arg-Arg-Arg-PEG1-Trp-Trp-Trp-Trp] [IFX-046]					50	25	25	50
N=C(N)NCCC[C@H](NC(=O)[C@H](CCCNC(=N)N)NC(=O)[C@@H](N)CCCNC(=N)N)C(=O)N[C@@H](Cc1ccc(-c2ccccc2)cc1)C(=O)N[C@@H](Cc1ccc(-c2ccccc2)cc1)C(=O)N[C@@H](Cc1ccc(-c2ccccc2)cc1)C(=O)O [IFX-001-1, NH2-Arg-Arg-Arg-Bip-Bip-Bip-OH] (H-RRR[Bip][Bip][Bip]-OH)	>100	50 (≈ 43.2 µM)	50 (≈ 43.2 µM)	>100				
N=C(N)NCCC[C@H](NC(=O)[C@H](CCCNC(=N)N)NC(=O)[C@H](CCCNC(=N)N)NC(=O)[C@@H](N)CCCNC(=N)N)C(=O)N[C@@H](Cc1ccc(-c2ccccc2)cc1)C(=O)N[C@@H](Cc1ccc(-c2ccccc2)cc1)C(=O)N[C@@H](Cc1ccc(-c2ccccc2)cc1)C(=O)O [IFX-007-1, NH2-Arg-Arg-Arg-Arg-Bip-Bip-Bip-OH] (H-RRRR[Bip][Bip][Bip]-OH)	>100	6.2 (≈ 4.72 µM)	6.2 (≈ 4.72 µM)	25 (≈ 19 µM)				
N=C(N)NCCC[C@H](NC(=O)[C@H](CCCNC(=N)N)NC(=O)[C@H](CCCNC(=N)N)NC(=O)[C@@H](N)CCCNC(=N)N)C(=O)N[C@@H](Cc1ccc(-c2ccccc2)cc1)C(=O)N[C@@H](Cc1ccc(-c2ccccc2)cc1)C(=O)N[C@@H](Cc1ccc(-c2ccccc2)cc1)C(=O)N[C@@H](Cc1ccc(-c2ccccc2)cc1)C(=O)O [IFX-004-1, NH2-Arg-Arg-Arg-Arg-Bip-Bip-Bip-Bip-OH] (H-RRRR[Bip][Bip][Bip][Bip]-OH)	>100	>100	>100	>100				
c[Arg-Arg-Arg-Arg-5fW-5fW-5fW-5fW] [IFX-038]					50	25	12.5	100
c[PEG4-Arg-arg-Arg-arg-Trp-naI-naI] [IFX-053]					64	16	16	128
N=C(N)NCCC[C@@H]1NC(=O)[C@H](CCCNC(=N)N)NC(=O)[C@H](Cc2ccc(-c3ccccc3)cc2)NC(=O)[C@H](Cc2ccc(-c3ccccc3)cc2)NC(=O)[C@H](Cc2ccc(-c3ccccc3)cc2)NC(=O)[C@H](CCCNC(=N)N)NC1=O [IFX-001, c[Arg-Arg-Arg-Bip-Bip-Bip]] (cyclo([Bip][Bip][Bip]RRR))	>100	50 (≈ 43.9 µM)	50 (≈ 43.9 µM)	>100				
c[PEG2-Arg-Arg-Arg-Arg-Arg-PEG2-Dip-Dip-Dip] [IFX-050-2]					64	16	16	128
